How the values were obtained:
Assay type in all cases: in vivo
[1] = test system: Sunflower; assay: Test C preemergence; settings: Rate 500 g/ha, visual evaluation after 12 to 14 days
[2] = test system: Sunflower; assay: Test C preemergence; settings: Rate 125 g/ha; scale 0 to 100, 0 no effect, 100 complete control
[3] = test system: common ragweed (Ambrosia elatior); assay: Test C preemergence
Summary of the method: (§1)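 Preemergence: seeds sown then treated. Postemergence: plants 2–18 cm, 1- to 4-leaf. Both with surfactant-containing solvent formulation; visual injury scored 0–100 after 12–14 d.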

[4] = test system: bermudagrass (Cynodon dactylon); assay: Test C preemergence
Summary of the method: as §1

[5] = test system: velvetleaf (Abutilon theophrasti); assay: Test C preemergence
Summary of the method: as §1

[6] = test system: goosegrass (Eleusine indica); assay: Test C preemergence
Summary of the method: as §1

[7] = test system: giant foxtail (Setaria faberii); assay: Test C preemergence
Summary of the method: as §1

[8] = test system: crabgrass (Digitaria sanguinalis); assay: Test C preemergence
Summary of the method: as §1

[9] = test system: Surinam grass (Brachiaria decumbens); assay: Test C preemergence
Summary of the method: as §1

[10] = test system: morningglory (Ipomoea hederacea); assay: Test C preemergence
Summary of the method: as §1

[11] = test system: cocklebur (Xanthium strumarium); assay: Test C preemergence
Summary of the method: as §1

[12] = test system: rice (Oryza saliva); assay: Test B preemergence
Summary of the method: (§2)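 Post-treatment, species sat 13–15 days under greenhouse conditions before visual scoring against controls, 0 (no effect) through 100 (complete control). Application preemergence to sown seeds or postemergence at 1- to 4-leaf stage, using a non-phytotoxic solvent/surfactant formulation.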

[13] = test system: velvetleaf (Abutilon theophrasti); assay: Test B preemergence
Summary of the method: as §2

[14] = test system: barnyardgrass (Echinochloa crus-galli); assay: Test B preemergence
Summary of the method: as §2

[15] = test system: giant foxtail (Setaria faberii); assay: Test B preemergence
Summary of the method: as §2

[16] = test system: crabgrass (Digitaria sanguinalis); assay: Test B preemergence
Summary of the method: as §2

[17] = test system: Surinam grass (Brachiaria decumbens); assay: Test B preemergence
Summary of the method: as §2

[18] = test system: lambsquarters (Chenopodium album); assay: Test B preemergence
Summary of the method: as §2

[19] = test system: corn (Zea mays); assay: Test B preemergence
Summary of the method: as §2

[20] = test system: cocklebur (Xanthium strumarium); assay: Test B preemergence
Summary of the method: as §2

[21] = test system: morning glory (Ipomoea hederacea); assay: Test B preemergence
Summary of the method: as §2

[22] = test system: pigweed (Amaranthus retroflexus); assay: Test B preemergence
Summary of the method: as §2

[23] = Rate 125 g/ha, scale 0 to 100, 0 no effect, 100 complete control
[24] = preemergence, Rate 62 g/ha, scale 0 to 100
[25] = preemergence, Rate 500 g/ha, visual evaluation after 12 to 14 days
[26] = preemergence, Rate 250 g/ha, scale 0 to 100, 0 no effect, 100 complete control
[27] = Preemergence, Rate 500 g/ha, scale 0 to 100, 0 no effect, 100 complete control
[28] = preemergence, Rate 125 g/ha, scale of 0 to 100 where 0 is no effect and 100 is complete control, 13 to 15 days

CCCC(C)c1ccn(C2OCN(c3cccc(C(F)(F)F)c3)C2=O)n1 (stereo not drawn) [Compound 89]
60: Plant response rating (0 to 100), Sunflower [1] | Plant response rating, Surinam grass [17, 28]
95: Plant response rating, Goosegrass [6, 24]
30: Plant response rating, Surinam grass [9, 26]
80: Plant response rating, Barnyardgrass [14, 28]
65: Plant response rating (0 to 100), Surinam grass [9, 25]
10: Plant response rating, Bermudagrass [4, 24] | Plant response rating (0 to 100), Velvetleaf [5, 25] | Plant response rating, Surinam grass [9, 23] | Plant response rating (0 to 100), Cocklebur [11, 25] | Plant response rating, Cocklebur [11, 26] | Plant response rating, Rice [12, 27]
20: Plant response rating, Crabgrass [8, 24]
100: Plant response rating (0 to 100 where 0 is no effect and 100 is complete control), Bermudagrass [4, 25] | Plant response rating, Goosegrass [6, 23] | Plant response rating (0 to 100), Goosegrass [6, 25] | Plant response rating, Goosegrass [6, 26] | Plant response rating (0 to 100), Foxtail, Giant [7, 25] | Plant response rating, Crabgrass [8, 23] | Plant response rating (0 to 100), Crabgrass [8, 25] | Plant response rating, Crabgrass [8, 26] | Plant response rating, Barnyardgrass [14, 27] | Plant response rating, Foxtail, Giant [15, 27] | Plant response rating, Crabgrass [16, 27] | Plant response rating, Surinam grass [17, 27] | Plant response rating, Lambsquarters [18, 27] | Plant response rating, Lambsquarters [18, 28] | Plant response rating, Pigweed [22, 27]
90: Plant response rating, Bermudagrass [4, 23] | Plant response rating, Bermudagrass [4, 26] | Plant response rating, Foxtail, Giant [15, 28] | Plant response rating, Crabgrass [16, 28] | Plant response rating, Pigweed [22, 28]
0: Plant response rating, Sunflower [2] | Plant response rating, Ragweed, Common [3, 23] | Plant response rating, Ragweed, Common [3, 24] | Plant response rating (0 to 100), Ragweed, Common [3, 25] | Plant response rating, Ragweed, Common [3, 26] | Plant response rating, Velvetleaf [5, 23] | Plant response rating, Velvetleaf [5, 24] | Plant response rating, Velvetleaf [5, 26] | Plant response rating, Foxtail, Giant [7, 23] | Plant response rating, Foxtail, Giant [7, 24] | Plant response rating, Foxtail, Giant [7, 26] | Plant response rating, Surinam grass [9, 24] | Plant response rating, Morningglory [10, 23] | Plant response rating, Morningglory [10, 24] | Plant response rating (0 to 100), Morningglory [10, 25] | Plant response rating, Morningglory [10, 26] | Plant response rating, Cocklebur [11, 23] | Plant response rating, Cocklebur [11, 24] | Plant response rating, Rice [12, 28] | Plant response rating, Velvetleaf [13, 27] | Plant response rating, Velvetleaf [13, 28] | Plant response rating, Corn [19, 27] | Plant response rating, Corn [19, 28] | Plant response rating, Cocklebur [20, 27] | Plant response rating, Cocklebur [20, 28] | Plant response rating, Morningglory [21, 27] | Plant response rating, Morningglory [21, 28]

From patent publication US7138361B2, “Herbicidal heterocycles” (E. I. du Pont de Nemours and Company, priority 2000, dated 2006)
